Assay results published in publication PMC10345685, “Anthocyanin and proanthocyanidin from Aronia melanocarpa (Michx.) Ell.: Purification, fractionation, and enzyme inhibition” (Food Science & Nutrition, 2023).
pIC50: −log10 of the molar value. Read-outs that look alike come from different tables or passages of the source.

What was measured:
[1] = target: Lipase; settings: cited from earlier work
[2] = target: T1, Lipase from human porcine pancreas (Sus scrofa, UniProt P00591); experiment: Lipase inhibition (pNP laurate substrate); format: biochemical; settings: comparison among the anthocyanins / proanthocyanidin fractions
T1 construct: purchased Sigma‐Aldrich, Inc (Shanghai, China)
T1 sequence (P00591 1-450): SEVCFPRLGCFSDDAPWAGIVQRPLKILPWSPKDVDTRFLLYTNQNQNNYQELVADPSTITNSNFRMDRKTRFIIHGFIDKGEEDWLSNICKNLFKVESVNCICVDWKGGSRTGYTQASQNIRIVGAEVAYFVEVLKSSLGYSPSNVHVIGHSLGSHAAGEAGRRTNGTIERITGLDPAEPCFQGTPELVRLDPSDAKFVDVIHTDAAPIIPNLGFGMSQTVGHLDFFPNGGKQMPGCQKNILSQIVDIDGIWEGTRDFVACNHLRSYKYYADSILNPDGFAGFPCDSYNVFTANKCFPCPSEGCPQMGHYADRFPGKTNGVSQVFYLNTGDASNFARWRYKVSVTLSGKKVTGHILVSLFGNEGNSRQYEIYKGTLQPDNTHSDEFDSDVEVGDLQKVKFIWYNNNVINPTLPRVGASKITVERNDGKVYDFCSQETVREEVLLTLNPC
Source text: (§1) All the chemicals used for analyses were of analytical grade and high‐performance liquid chromatography (HPLC) chemicals were of HPLC purity and were all purchased from Sinopharm Chemical Reagent Co., Ltd (Shanghai, China). Lipase from […] porcine pancreas (EC 3.1.1.3), α‐amylase from human pancreas (EC 3.2.1.1), and α‐glucosidase from Bacillus stearothermophilus (EC 3.2.1.20) were obtained from Sigma‐Aldrich, Inc (Shanghai, China). Standards of cyanidin 3‐galactoside, cyanidin 3‐arabinoside, cyanidin 3‐xyloside, cyanidin 3‐glucoside, catechin, and epicatechin were obtained from Sigma‐Aldrich, Inc. (Shanghai, China). Amberlite XAD7HP, Sephadex LH‐20, and ENVI 18 DSK SPE were obtained from Sigma‐Aldrich, Inc (Shanghai, China).
The lipase inhibitory activity was determined according to the method described by Tan et al. ([2017]) with modifications (Table 3). Three hundred and fifty μL phosphate buffer (0.05 M, pH 7.6), 150 μL of porcine lipase enzyme solution (50 mg/mL), and 50 μL of fractionated compounds were added in a centrifuge tube (1.5 mL size) and incubated at 37°C for exactly 10 min. Then, 450 μL pNP laurate substrate was added to the reaction mixture and blended, followed by incubation at 37°C for 120 min without light. The reaction mixture was centrifuged for 10 min at 8000 g and the supernatant of 200 μL was taken into a 96‐well plate to determine the absorbance at 405 nm. The percentage inhibition was calculated using Equation 4. Lipase inhibitory activity was measured at five different concentrations, and a logarithmic regression curve was established to calculate IC50 values (Tan et al., [2017]). (4) Lipase inhibitory activity%=1−As−Ab/At−Ac×100%

[3] = target: α‐Amylase; settings: cited from earlier work
[4] = target: α‐Glucosidase; settings: cited from earlier work
[5] = target: T2, α‐amylase from human pancreas (Homo sapiens, UniProt P04746); experiment: α‐Amylase inhibition (DNS method, soluble starch); format: biochemical; settings: comparison among the anthocyanins / proanthocyanidin fractions
T2 construct: purchased Sigma‐Aldrich, Inc (Shanghai, China)
T2 sequence (P04746 16-511): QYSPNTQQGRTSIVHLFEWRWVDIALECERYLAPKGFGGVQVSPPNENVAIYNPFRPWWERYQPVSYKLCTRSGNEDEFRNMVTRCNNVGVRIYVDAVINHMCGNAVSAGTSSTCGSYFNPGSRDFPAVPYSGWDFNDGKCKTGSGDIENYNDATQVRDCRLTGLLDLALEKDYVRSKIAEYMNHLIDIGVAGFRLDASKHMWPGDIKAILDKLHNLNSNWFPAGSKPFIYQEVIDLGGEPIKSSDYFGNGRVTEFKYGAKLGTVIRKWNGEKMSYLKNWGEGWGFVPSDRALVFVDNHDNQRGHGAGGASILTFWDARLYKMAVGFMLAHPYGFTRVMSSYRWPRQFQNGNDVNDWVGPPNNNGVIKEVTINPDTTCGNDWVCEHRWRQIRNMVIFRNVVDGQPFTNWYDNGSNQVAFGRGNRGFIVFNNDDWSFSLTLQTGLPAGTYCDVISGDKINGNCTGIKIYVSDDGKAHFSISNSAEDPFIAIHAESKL
Source text: as §1, with “Amberlite XAD7HP, Sephadex LH‐20, and ENVI 18 DSK SPE were obtained from Sigma‐Aldrich, Inc (Shanghai, China).” left out
α‐Amylase inhibitory activity was determined using the method from Tan et al. ([2017]), with a slight modification as Table 1 indicates. […] Then, 200 μL of the mixture was taken and added to a 96‐well plate and the absorption at 540 nm was determined. To eliminate the background absorbance produced by the fractionated compounds, an appropriate extract control without enzyme was included. α‐Amylase inhibitory activity was measured at five different concentrations, and a logarithmic regression curve was established to calculate IC50 values (mg/mL) (Tan et al., [2017]). The α‐amylase inhibitory activity was expressed as function 2 and the As, Ab, At, and Ac indicated the absorbance in different solutions as shown in Table 1. […]

[6] = nf, not found, ref Worsztynowicz et al., 2014
[7] = ref Akkarachiyasit et al., 2010

Compound | IC50 values Lipase [1, 6] | inhibition effect on lipase (in words) [2] | IC50 values α‐Amylase [3, 6] | IC50 values α‐Glucosidase ([4]; ref Bräunlich et al., 2013) | pIC50 [3, 7] | IC50 values α‐Glucosidase ([4]; for sucrose, ref Adisakwattana et al., 2009) [µg/mL] | IC50 values Lipase ([1]; ref Vijayaraj et al., 2019) [µg/mL] | inhibition effect on α‐amylase (in words) [5] | IC50 values α‐Amylase [3, 7] [mg/mL] | IC50 values α‐Glucosidase ([4]; for sucrose, ref Akkarachiyasit et al., 2010) [µg/mL]
Oc1cc(O)c2cc(OC3OCC(O)C(O)C3O)c(-c3ccc(O)c(O)c3)[o+]c2c1 (centres unmarked) [Cyanidin 3‐arabinoside, cyanidin 3‐arabinoside] | nf (Worsztynowicz et al., [2014]) | no inhibition effects | 3.98 ± 0.10 mg/mL (Worsztynowicz et al., [2014]) | 0.37 ± 0.08 μg/mL (Bräunlich et al., [2013]) | – | – | – | – | – | –
OCC1OC(Oc2cc3c(O)cc(O)cc3[o+]c2-c2ccc(O)c(O)c2)C(O)C(O)C1O (centres unmarked) [Cyanidin 3‐galactoside, cyanidin 3‐galactoside] | nf (Worsztynowicz et al., [2014]) | no inhibition effects | 5.16 ± 0.06 mg/mL | 1.54 ± 0.1 µg/mL | < 3.00 | 224.5 ± 22.45 | – | – | – | –
OCC1OC(Oc2cc3c(O)cc(O)cc3[o+]c2-c2ccc(O)c(O)c2)C(O)C(O)C1O (centres unmarked) [Cyanidin 3‐glucoside, cyanidin 3‐glucoside] | 1170 ± 40 µg/mL | strongest inhibition effects | 1.74 ± 0.04 mg/mL | 0.87 ± 0.2 µg/mL | – | – | 84.54 ± 2.94 | strongest inhibition effects | 0.1347 ± 0.00449 | 435.53 ± 22.45
Oc1cc(O)c2cc(OC3OCC(O)C(O)C3O)c(-c3ccc(O)c(O)c3)[o+]c2c1 (centres unmarked) [Cyanidin 3‐xyloside, cyanidin 3‐xyloside] | nf (Worsztynowicz et al., [2014]) | no inhibition effects | nf (Worsztynowicz et al., [2014]) | 5.5 ± 1.6 μg/mL (Bräunlich et al., [2013]) | – | – | – | no effect | – | –
